A short description of this data set: Water-solubility measurement at 26° C. It counts as physicochemical. As to conditions: in water, measured at 26° C. Here is the method: The water-solubilities of the methanol solvate of meropenem obtained in the above as well as meropenem trihydrate were measured at 26° C.

Take `C[C@@H](O)[C@H]1C(=O)N2C(C(=O)O)=C(S[C@@H]3CN[C@H](C(=O)N(C)C)C3)[C@H](C)[C@H]12` [methanol solvate of meropenem, (4R,5S,6S)-3-((3S,5S)-5-(dimethylcarbamoyl)pyrrolidin-3-ylthio)-6-((R)-1-hydroxyethyl)-4-methyl-7-oxo-1-azabicyclo[3.2.0]hept-2-ene-2-carboxylic acid]: the water-solubility stood at 57.6 mg/mL.
The same measure for `C[C@@H](O)[C@H]1C(=O)N2C(C(=O)O)=C(S[C@@H]3CN[C@H](C(=O)N(C)C)C3)[C@H](C)[C@H]12` [meropenem trihydrate, (4R,5S,6S)-3-((3S,5S)-5-(dimethylcarbamoyl)pyrrolidin-3-ylthio)-6-((R)-1-hydroxyethyl)-4-methyl-7-oxo-1-azabicyclo[3.2.0]hept-2-ene-2-carboxylic acid]: 16.4 mg/mL.
